The numbers were not newly measured in patent US7759386B2, “Pharmaceutical compositions of estrogenic agents” (Wyeth LLC, priority 2000, dated 2010), which cites them from elsewhere.

Structures are written as SMILES.

The conditions of this data set: after 1 year of storage; best antioxidant system described; solid state, tablets.

`C=C1CC[C@H](O)C/C1=C/C=C1\CCC[C@]2(C)[C@@H]([C@H](C)CCCC(C)C)CC[C@@H]12` [cholecalciferol]: the original content remaining is 87.6%.
